47 compounds from EPA's aquatic toxicity sets can be followed below.

The test system of one data set is Daphnia magna. Nature of the data set: 48 h LC50 (-log10 mol/L); higher = more toxic.
For the next data set, the system named is Tetrahymena pyriformis. Nature of the data set: 48 h IGC50 (-log10 mol/L); higher = more toxic.

Consider `Clc1ccc(Cl)cc1`, for which the “48 h LC50 (-log10 mol/L)” value in the data set with Daphnia magna is 4.14. The “48 h IGC50 (-log10 mol/L)” value in the data set on Tetrahymena pyriformis amounted to 3.53.

Regarding `CNC(N)=S`, the “48 h LC50 (-log10 mol/L)” value with Daphnia magna was found to be 3.98. Moreover, the “48 h IGC50 (-log10 mol/L)” value in the data set with Tetrahymena pyriformis turned out to be 1.63.

For `Cc1ccc(O)c(C)c1`, in the data set with Daphnia magna, the “48 h LC50 (-log10 mol/L)” value is 4.76. Also, the “48 h IGC50 (-log10 mol/L)” value with Tetrahymena pyriformis was found to be 3.14.

For `S=C=NCc1ccccc1`, the “48 h LC50 (-log10 mol/L)” value with Daphnia magna stood at 6.54. Moreover, the “48 h IGC50 (-log10 mol/L)” value in the data set with Tetrahymena pyriformis was determined as 5.74.

For `c1ccsc1`, the “48 h LC50 (-log10 mol/L)” value in the data set on Daphnia magna was 2.42. Further, the “48 h IGC50 (-log10 mol/L)” value with Tetrahymena pyriformis was found to be 1.56.

For the compound `Cc1cc(Cl)ccc1O`, in the data set with Daphnia magna, the “48 h LC50 (-log10 mol/L)” value is 5.69. For the same compound, in the data set with Tetrahymena pyriformis, the “48 h IGC50 (-log10 mol/L)” value came out at 3.7.

Turning to `CNC(=S)NC`, the “48 h LC50 (-log10 mol/L)” value in the data set with Daphnia magna worked out at 3.83. Moreover, the “48 h IGC50 (-log10 mol/L)” value with Tetrahymena pyriformis was determined as 1.89.

As for `OCCCl`, the “48 h LC50 (-log10 mol/L)” value in the data set with Daphnia magna worked out at 2.58. The “48 h IGC50 (-log10 mol/L)” value with Tetrahymena pyriformis is 1.58.

`CCCCNC(N)=S`: the “48 h LC50 (-log10 mol/L)” value in the data set with Daphnia magna was 3.85. Also, the “48 h IGC50 (-log10 mol/L)” value with Tetrahymena pyriformis stood at 2.81.

Turning to `c1ccc2[nH]ccc2c1`, the “48 h LC50 (-log10 mol/L)” value in the data set with Daphnia magna was found to be 5.07. Moreover, in the data set with Tetrahymena pyriformis, the “48 h IGC50 (-log10 mol/L)” value is 3.21.

`CCOC(C)=O`: in the data set on Daphnia magna, the “48 h LC50 (-log10 mol/L)” value came to 2.09. Besides, in the data set on Tetrahymena pyriformis, the “48 h IGC50 (-log10 mol/L)” value came to 1.7.

Turning to `Cc1ccc([N+](=O)[O-])cc1C`, the “48 h LC50 (-log10 mol/L)” value with Daphnia magna was determined as 3.98. Further, in the data set on Tetrahymena pyriformis, the “48 h IGC50 (-log10 mol/L)” value was determined as 3.59.

With `CCCCc1ccccc1`, in the data set on Daphnia magna, the “48 h LC50 (-log10 mol/L)” value came to 5.55. Besides, the “48 h IGC50 (-log10 mol/L)” value with Tetrahymena pyriformis was determined as 4.25.

`CCCCC(CC)C(=O)O` (stereo not drawn): the “48 h LC50 (-log10 mol/L)” value with Daphnia magna came out at 3.08. For the same compound, the “48 h IGC50 (-log10 mol/L)” value in the data set with Tetrahymena pyriformis amounted to 3.08.

Turning to `CCNC(N)=S`, the “48 h LC50 (-log10 mol/L)” value in the data set with Daphnia magna was determined as 3.94. Besides, in the data set on Tetrahymena pyriformis, the “48 h IGC50 (-log10 mol/L)” value stood at 1.87.

Consider `Cc1ccccc1N`, for which the “48 h LC50 (-log10 mol/L)” value with Daphnia magna is 5.31. Also, the “48 h IGC50 (-log10 mol/L)” value in the data set with Tetrahymena pyriformis amounted to 2.84.

On to `S=C=NCCc1ccccc1`, for which the “48 h LC50 (-log10 mol/L)” value in the data set on Daphnia magna came out at 6.1. Further, the “48 h IGC50 (-log10 mol/L)” value in the data set on Tetrahymena pyriformis was found to be 5.54.

Consider `Cc1ccc(C)cc1`, for which the “48 h LC50 (-log10 mol/L)” value in the data set on Daphnia magna was 3.52. Also, the “48 h IGC50 (-log10 mol/L)” value with Tetrahymena pyriformis turned out to be 3.25.

Turning to `O=Cc1ccc(O)c(O)c1O`, in the data set on Daphnia magna, the “48 h LC50 (-log10 mol/L)” value was found to be 3.67. The “48 h IGC50 (-log10 mol/L)” value in the data set on Tetrahymena pyriformis was 3.

On to `O=[N+]([O-])c1ccc(O)cc1`, for which, in the data set on Daphnia magna, the “48 h LC50 (-log10 mol/L)” value was determined as 4.02. The “48 h IGC50 (-log10 mol/L)” value with Tetrahymena pyriformis was 4.42.

Regarding `Cc1ccc2ccccc2c1`, the “48 h LC50 (-log10 mol/L)” value in the data set with Daphnia magna was found to be 4.98. For the same compound, in the data set with Tetrahymena pyriformis, the “48 h IGC50 (-log10 mol/L)” value was 4.08.

Regarding `CC(C)CCCCCCCCCCN(CCCCCCCCCCC(C)C)CCCCCCCCCCC(C)C`, the “48 h LC50 (-log10 mol/L)” value in the data set on Daphnia magna was determined as 5.96.

On to `Cc1cccc([N+](=O)[O-])c1C`, for which the “48 h LC50 (-log10 mol/L)” value in the data set on Daphnia magna is 4.56.

For `CC(C)(C)NC(=O)[C@@H]1C[C@@H]2CCCC[C@@H]2CN1C[C@@H](O)[C@H](Cc1ccccc1)NC(=O)[C@H](CC(N)=O)NC(=O)c1ccc2ccccc2n1`, the “48 h LC50 (-log10 mol/L)” value in the data set with Daphnia magna was determined as 4.27.

For the compound `Brc1ccc(Oc2cc(Br)c(Br)cc2Br)c(Br)c1`, in the data set on Daphnia magna, the “48 h LC50 (-log10 mol/L)” value was 7.02.

As for `O=S1OC[C@@H]2[C@H](CO1)[C@]1(Cl)C(Cl)=C(Cl)[C@@]2(Cl)C1(Cl)Cl` (stereo partly drawn), the “48 h LC50 (-log10 mol/L)” value in the data set on Daphnia magna is 6.08.

For `CC(OC(=O)c1cc(Oc2ccc(C(F)(F)F)cc2Cl)ccc1[N+](=O)[O-])C(=O)O` (stereo not drawn), in the data set on Daphnia magna, the “48 h LC50 (-log10 mol/L)” value came out at 4.5.

On to `CCCCCCCCc1ccc(O)cc1`, for which the “48 h LC50 (-log10 mol/L)” value with Daphnia magna was 6.36.

As to `CC(=O)OCC(CCn1cnc2cnc(N)nc21)COC(C)=O`, the “48 h LC50 (-log10 mol/L)” value with Daphnia magna came out at 2.59.

Turning to `CN/C(=C\[N+](=O)[O-])NCCSCc1ccc(CN(C)C)o1`, the “48 h LC50 (-log10 mol/L)” value in the data set with Daphnia magna amounted to 2.69.

With `COc1c(Cl)c(Cl)c(Cl)c(Cl)c1Cl`, the “48 h LC50 (-log10 mol/L)” value in the data set on Daphnia magna is 7.01.

As for `Clc1cccc(Cl)c1Cl`, in the data set on Daphnia magna, the “48 h LC50 (-log10 mol/L)” value is 4.75.

For the compound `CCN(CC)C(=S)SSC(=S)N(CC)CC`, the “48 h LC50 (-log10 mol/L)” value in the data set on Daphnia magna worked out at 5.98.

`CCCC(=O)Nc1ccc(OCC(O)CNC(C)C)c(C(C)=O)c1` (stereo not drawn): the “48 h LC50 (-log10 mol/L)” value in the data set on Daphnia magna amounted to 3.82.

Consider `CN1CSC(=S)N(C)C1`, for which the “48 h LC50 (-log10 mol/L)” value in the data set with Daphnia magna stood at 5.47.

On to `COc1ccccc1O`, for which the “48 h LC50 (-log10 mol/L)” value in the data set on Daphnia magna was 3.68.

In the case of `Cc1nc2n(c(=O)c1CCN1CCC(c3noc4cc(F)ccc34)CC1)CCCC2`, the “48 h LC50 (-log10 mol/L)” value with Daphnia magna came out at 4.83.

Take `N#CSCSC#N`: the “48 h LC50 (-log10 mol/L)” value with Daphnia magna is 6.25.

With `N/C(=N\N=C\c1ccc(Cl)cc1)N/N=C/c1ccc(Cl)cc1`, the “48 h LC50 (-log10 mol/L)” value in the data set with Daphnia magna amounted to 6.65.

`O=S1(=O)OCC2C(CO1)C1(Cl)C(Cl)=C(Cl)C2(Cl)C1(Cl)Cl` (stereo not drawn): the “48 h LC50 (-log10 mol/L)” value in the data set on Daphnia magna came to 5.3.

As to `C=C[C@]1(C)C[C@@H](OC(=O)CSC2C[C@H]3CC[C@@H](C2)N3C)[C@]2(C)[C@H](C)CC[C@]3(CCC(=O)[C@H]32)[C@@H](C)[C@@H]1O` (stereo partly drawn), the “48 h LC50 (-log10 mol/L)” value with Daphnia magna stood at 4.11.

`O=CCCCC=O`: the “48 h LC50 (-log10 mol/L)” value in the data set with Daphnia magna turned out to be 3.79.

For the compound `CC/C(=C(/CC)c1ccc(O)cc1)c1ccc(O)cc1`, in the data set on Daphnia magna, the “48 h LC50 (-log10 mol/L)” value came to 5.37.

In the case of `Cc1c(OCC(F)(F)F)ccnc1CS(=O)c1nc2ccccc2[nH]1` (stereo not drawn), the “48 h LC50 (-log10 mol/L)” value in the data set on Daphnia magna was 4.22.

For the compound `CC[C@H]1OC(=O)[C@H](C)[C@@H](O[C@H]2C[C@@](C)(OC)[C@@H](O)[C@H](C)O2)[C@H](C)[C@@H](O[C@@H]2O[C@H](C)C[C@H](N(C)C)[C@H]2O)[C@](C)(O)C[C@@H](C)CN(C)[C@H](C)[C@@H](O)[C@]1(C)O`, the “48 h LC50 (-log10 mol/L)” value in the data set with Daphnia magna is 3.79.

As for `Cc1c(COC(=O)[C@@H]2[C@H](/C=C(\Cl)C(F)(F)F)C2(C)C)cccc1-c1ccccc1`, the “48 h LC50 (-log10 mol/L)” value in the data set with Daphnia magna is 8.11.

With `CCNc1nc(Cl)nc(NCC)n1`, in the data set with Daphnia magna, the “48 h LC50 (-log10 mol/L)” value was 3.33.
